From patent US9174925B2 (priority 2011, dated 2015)
Where two headings read alike, the source gives them in different places.

Key:
NK92 cells = assay type: cell-based, human
Epstein-Barr virus = conditions: reported in literature (Hirota M. et al., 1979); cited from earlier work
[1] = reported in literature (Hirota M. et al., 1979); cited from earlier work

## CCCCCCCCCCCCCCCC(=O)O[C@@H]1[C@@H](C)[C@@]2(O)[C@@H](C(=O)C(CO)=C[C@]3(O)C(=O)C(C)=C[C@@H]23)[C@H]2[C@]1(OC(C)=O)[C@@]2(C)CO [Compound 1, 12-O-hexadecanoyl-7-oxo-5-ene-16-hydroxyphorbol-13-acetate]
NK92 cells; 40 nM, FIG. 8
  activity for inducing IFN-γ production: high activity for inducing IFN-γ production

## CCCCCCCCCCCCCCCC(=O)OC1C(C)C2(O)C(C(=O)C(CO)=CC3(O)C(=O)C(C)=CC32)C2C(C)(C)C12OC(C)=O (centres unmarked) [Compound 2, 12-O-hexadecanoyl-7-oxo-5-ene-phorbol-13-acetate]
NK92 cells; 1.6 μM, FIG. 7
  activity for inducing IFN-γ production: had activity for inducing IFN-γ production

## CCCCCCCCCCCCCCCC(=O)O[C@@H]1[C@@H](C)[C@@]2(O)[C@@H](C=C(CO)C[C@]3(O)C(=O)C(C)=C[C@@H]23)[C@H]2[C@]1(OC(C)=O)[C@]2(C)CO [Compound 4, 12-O-hexadecanoyl-16-hydroxyphorbol-13-acetate]
Epstein-Barr virus
  Epstein-Barr virus activation: Epstein-Barr virus activation
[1]
  piscicidal effects: piscicidal effects

## CCCCCCCCCCCCCCCC(=O)O[C@@H]1[C@@H](C)[C@]2(O)[C@@H]3C=C(C)C(=O)[C@@H]3CC(CO)=C[C@H]2[C@H]2[C@]1(OC(C)=O)[C@@]2(C)CO [Compound 5, 12-O-hexadecanoyl-4-deoxy-4α-16-hydroxyphorbol-13-acetate]
NK92 cells; 8 μM, FIG. 7
  activity for inducing IFN-γ production: had activity for inducing IFN-γ production
